“Also recorded” adds a separate entry of the source.
Experiments:
[1] = target: T1, aprataxin (APTX) (Homo sapiens, UniProt Q7Z2E3); assay: 3'-DNA phosphatase activity of aprataxin; type: biochemical; conditions: 50 μM
T1 construct: made in house; host or cells: E. coli BL21-Gold (DE3), QIAgene expression construct (Qiagen)
Description: Human recombinant aprataxin (APTX) protein with an N-terminal 6× His tag was expressed in BL21-Gold (DE3) E. coli competent cells (Stratagene, La Jolla, Calif.) using the QIAgene expression construct (Qiagen, Mississauga, ON). A single colony of kanamycin resistant E. coli was used to inoculate a 200-ml overnight culture (e.g., about 12 to about 16 hours in Luria-Bertani (LB) media containing 30 μg/ml kanamycin. Four 50-ml fractions of overnight culture were then subcultured into 4×1 L LB without kanamycin. Once the culture reached an optical density of ˜0.6 at 600 nm, protein expression was induced using 0.2 mM isopropyl-1-thio-β-galactopyranoside (Sigma, St Louis, Mo.) at 37° C. for 2 hours. Cells were harvested by centrifugation at 10,000 rpm for 10 minutes at 4° C. and resuspended in 40 ml buffer (50 mM NaH2PO4, 250 mM NaCl, 1 mM PMSF, at pH 7.9). The solution was then stirred on ice for 30 minutes in the presence of 30 mg lysozyme and 4 mg PMSF, 1 μg/ml each of pepstatin and leupeptin. […] His-APTX concentration was then determined using the Bio-Rad Protein assay (Bio-Rad, Mississauga, ON).
It was also tested whether A12B4C3 could inhibit aprataxin, which is another human DNA 3′-phosphatase. For this experiment, the oligonucleotide substrate was incubated with equal quantities of the two enzymes that were purified from bacteria on the same day. […]

[2] = target: T2, PP-1cγ (Homo sapiens, UniProt P36873); assay: PP-1cγ pNPP phosphatase assay; type: biochemical; conditions: concentration as high as 83.3 μM
T2 construct: made in house; host or cells: E. coli
Description: PP-1cγ and calcineurin activity was analyzed, using a colorimetric p-nitrophenol phosphate (pNPP) assay as previously described (33). The reaction were carried out in a 96-well microplate with a final volume of 60 μl containing 40 μl of pNPP assay buffer (50 mM Tris, pH 7.4, 0.1 mM EDTA, 30 mM MgCl2, 0.5 mM MnCl2, 1 mg/ml BSA, 0.2% β-mercaptoethanol), 0.03 μg PP-1cγ (specific activity>30 units per mg) or a catalytically equivalent quantity of calcineurin and 10 μl of 0.5 mM DNA 3′-phosphatase inhibitor sample in DMSO or 10 μl of 50 μM A12B4C3 sample in DMSO, or control solvent. After a 10-minute incubation at 37° C., 10 μl of 30 mM pNPP was added to each well and incubated for an additional of 60 minutes and 45 minutes for PP-1cγ and calcineurin, respectively.

[3] = tested on: A549 cells; assay: Radiosensitization, clonogenic assay; type: cell-based, human; conditions: 1 μM, 2 hours before irradiation and 24 hours after
Description: (§1) The effect of hPNKP inhibition by A12B4C3 on cellular survival following exposure to ionizing radiation was measured in A549, A549δPNKP and MDA-MB-231 and MDA-MB-231δPNKP cells by clonogenic assays. Cells were seeded on 60-mm tissue culture plates at various concentrations to give between about 100-1000 colonies per plate and returned to the incubator overnight to allow the cells to attach. For radiosensitization studies, the cells were incubated with or without 1 μM A12B4C3 for 2 hours before irradiation and then exposed to increasing doses of γ-radiation (^60Co Gammacell; Atomic Energy of Canada Limited, Ottawa). After irradiation, cells were incubated for a further 24 hours in the same media and then washed twice with phosphate-buffered saline (PBS) and incubated in fresh media without the inhibitor. Colonies were stained with crystal violet after 10 to 14 days and counted with an automated Colcount colony counter (Oxford Optronix, Oxford, UK).
(§2) The capacity of A12B4C3 to act as a radiosensitizer was then examined. A549 cells were incubated with 1 μM A12B4C3 for 2 hours prior to irradiation and then maintained in the presence of the compound for a further 24 hours. […] This radiation response was nearly identical to that seen with cells depleted of PNKP by stable expression of shRNA (A549δPNKP).

[4] = tested on: A549δPNKP cells (PNKP-depleted); assay: Radiosensitization, clonogenic assay; type: cell-based, human; conditions: 1 μM
Description: as §1, §2

[5] = tested on: A549 cells; assay: Chemosensitization to camptothecin, clonogenic survival assay; type: cell-based, human; conditions: 1 mM A12B4C3 2 hours before camptothecin, further 24 hours, wild type A549
Description: The effect of hPNKP inhibition by A12B4C3 on cellular survival following exposure to the topoisomerase I poison, camptothecin, was measured in A549 and A549δPNKP cells by the clonogenic survival assay (colony forming assay). Cells were seeded on 60-mm tissue culture plates at various concentrations to give between about 100-1000 colonies per plate and returned to the incubator overnight to allow the cells to attach. For chemosensitization studies, the cells were incubated with or without 1 mM A12B4C3 for 2 hours before addition of camptothecin and then exposed to increasing doses of camptothecin (Sigma). After addition of the topoisomerase I poison, cells were incubated for a further 24 hours in the same media and then washed twice with phosphate-buffered saline (PBS) and incubated in fresh media without the inhibitor. Colonies were stained with crystal violet after 10 to 14 days and counted with an automated Colcount colony counter (Oxford Optronix, Oxford, UK).
The capacity of A12B4C3 to act as a chemosensitizer was then examined. […] Colonies were stained with crystal violet after 10 to 14 days and counted with an automated Colcount colony counter (Oxford Optronix, Oxford, UK).

[6] = tested on: DNA Polymerase β Dominant Negative (Pol β DN) A549 cells; assay: Synthetic lethality cell proliferation assay; type: cell-based, human; conditions: increasing concentrations, 72 hours

T2 sequence (P36873 whole entry): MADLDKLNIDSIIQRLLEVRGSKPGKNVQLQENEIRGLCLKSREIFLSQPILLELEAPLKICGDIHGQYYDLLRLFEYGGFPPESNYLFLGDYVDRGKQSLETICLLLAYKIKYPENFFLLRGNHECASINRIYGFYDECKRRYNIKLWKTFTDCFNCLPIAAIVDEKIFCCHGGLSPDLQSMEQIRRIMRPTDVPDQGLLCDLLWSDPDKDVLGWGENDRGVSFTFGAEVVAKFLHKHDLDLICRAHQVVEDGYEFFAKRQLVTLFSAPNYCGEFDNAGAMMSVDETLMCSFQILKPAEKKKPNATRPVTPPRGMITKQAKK
T1 sequence (Q7Z2E3 whole entry): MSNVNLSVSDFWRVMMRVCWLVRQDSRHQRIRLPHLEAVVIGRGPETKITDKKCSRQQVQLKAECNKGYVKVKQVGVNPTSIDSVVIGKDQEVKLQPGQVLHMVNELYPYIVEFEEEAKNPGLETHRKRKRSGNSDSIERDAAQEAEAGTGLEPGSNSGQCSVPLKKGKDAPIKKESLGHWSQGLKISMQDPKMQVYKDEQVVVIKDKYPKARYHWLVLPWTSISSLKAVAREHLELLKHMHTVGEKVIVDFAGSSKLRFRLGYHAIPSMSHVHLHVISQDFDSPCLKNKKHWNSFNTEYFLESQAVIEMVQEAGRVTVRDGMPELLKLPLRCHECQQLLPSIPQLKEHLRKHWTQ

`CCCCCCCCCCC(O)C1C=CC2C(=O)N(c3ccccc3)C(=O)C2N1Nc1ccc([N+](=O)[O-])cc1` (stereo not drawn) [Compound A12B4C3, 2-(1-hydroxyundecyl)-1-(4-nitrophenylamino)-6-phenyl-6,7a-dihydro-1H-pyrrolo[3,4-b]pyridine-5,7(2H,4aH)-dione] was tested, and the “inhibition of aprataxin phosphatase activity” value [1] was “refractory”, the “inhibition of PP-1γ” value [2] was “Neither enzyme displayed inhibition; also recorded: no inhibition” and the “radiosensitization (γ-radiation survival curves)” value [3] was “almost doubled the radiosensitivity”. The “radiosensitization (γ-radiation survival curves)” value [4] was “failed to sensitize”, the chemosensitization to camptothecin [5] was “effectively sensitized” and the “cell survival of Pol β DN cells” value [6] was “reduced survival; also recorded: inverse relationship”.
